# Data reported in PubChem BioAssay (NCI).
#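 Following 48 hours of exposure in 96-well plates, responses at five concentrations were used to interpolate endpoints linearly. GI50 = concentration required for 50% inhibition of growth. TGI: concentration producing complete growth inhibition.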
# What was measured:
# Assay in all cases: inhibition of tumour cell growth, NCI panel, 48 h
# [1] = tested on: OVCAR-5 ovarian
# [2] = tested on: NCI-H23 lung
# [3] = tested on: MALME-3M melanoma
# [4] = tested on: UACC-257 melanoma
# [5] = tested on: SK-MEL-5 melanoma
# [6] = tested on: U251 CNS
# [7] = tested on: SNB-75 CNS
# [8] = tested on: DU-145 prostate
# [9] = tested on: T-47D breast
# [10] = tested on: RPMI-8226 leukemia
Compound,TGI [1] [µM],TGI [2] [µM],TGI [3] [µM],TGI [4] [µM],TGI [5] [µM],TGI [6] [µM],TGI [7] [µM],TGI [8] [µM],TGI [9] [µM],TGI [10] [µM],GI50 [8] [µM],GI50 [1] [µM],GI50 [2] [µM],GI50 [9] [µM],GI50 [4] [µM],GI50 [5] [µM],GI50 [6] [µM],GI50 [7] [µM],GI50 [3] [µM],GI50 [10] [µM]
COC(=O)C12C3C4C1C1C2C3C41C(=O)N(C(C)C)C(C)C (configuration not stated),> 100,> 100,> 100,> 100,> 100,> 100,> 100,–,–,–,–,–,–,–,–,–,–,–,–,–
C=Cc1cnc([N+](=O)[O-])n1C,> 100,> 100,> 100,> 100,> 100,> 100,–,> 100,> 100,> 100,–,–,–,–,–,–,–,–,–,–
O=C(c1ccccc1)c1ccccc1C(=O)c1ccccc1,> 100,> 100,–,> 100,67.1,> 100,> 100,> 100,> 100,–,88.1,> 100,34,47.2,40.5,22.5,39.4,45.5,–,–
CCC1(CC)C(=O)[N-]C(=O)[N-]C1=O.[Au+].[Au+].c1ccc([PH+](c2ccccc2)c2ccccc2)cc1.c1ccc([PH+](c2ccccc2)c2ccccc2)cc1,3.06,–,1.94,2.53,2.26,2.65,–,–,–,–,–,1.68,–,–,1.26,1.05,1.16,–,0.626,–
COc1cc(CNC(=O)CCSc2nc3ccccc3c(=O)n2Cc2cc(OC)c(OC)c(OC)c2)cc(OC)c1OC,> 100,> 100,–,> 100,13.7,59.5,12.9,> 100,34,67.2,7.27,9.38,6.87,5.52,16.3,2.85,5.34,2.06,–,4
O=C1C2=C(c3ccccc31)C(c1ccc(F)cc1)N1C(=O)CCSC1=N2 (configuration not stated),> 100,> 100,> 100,> 100,> 100,> 100,> 100,–,–,> 100,–,–,–,–,–,–,–,–,–,–
CN/N=C(\C(=O)Nc1ccc([N+](=O)[O-])cc1[N+](=O)[O-])C1NC(=O)NC1=O (configuration not stated),> 100,> 100,> 100,> 100,> 100,96.1,> 100,–,–,> 100,–,–,–,–,–,–,–,–,–,–
C=C(C)[C@@H]1CC[C@]2(C)[C@H](CC=C3[C@@H]4[C@H](C)[C@@H](C)CC[C@]4(CO)CC[C@]32C)[C@@]1(C)CCCN,6.15,4,1.42,2.21,1.65,–,3.62,3.01,5.15,–,1.21,1.76,1.34,1.51,1.04,0.91,–,0.848,0.734,–
Cc1cc(Cl)ccc1NC(=O)CCCC(=O)C(C(=O)c1ccccc1)c1ccccc1 (configuration not stated),> 100,> 100,> 100,> 100,–,> 100,–,–,–,> 100,–,–,–,–,–,–,–,–,–,–
CC(=O)NS(=O)(=O)c1ccc(-n2nc(-c3ccccc3)cc2C2=CC(=O)C=CC2=O)cc1,> 100,> 100,–,> 100,> 100,> 100,–,–,> 100,–,–,> 100,> 100,> 100,> 100,44.2,> 100,–,–,–
CC(C)(O)CCC(O)C(C)(O)C1CCC2(O)C3=CC(=O)C4(O)CC(O)C(O)CC4(C)C3CCC12C (configuration not stated) (tested in a mixture with another compound),> 100,> 100,> 100,> 100,> 100,> 100,> 100,> 100,> 100,–,–,–,–,–,–,–,–,–,–,–
Cc1ccc(SCC(O)=C2C(=O)CCCC2=O)cc1,> 100,> 100,> 100,> 100,> 100,> 100,> 100,–,–,> 100,–,–,–,–,–,–,–,–,–,–
COc1ccc(S(=O)(=O)n2c3ccccc3n3ncc(-c4nnc(C)o4)c23)cc1,> 100,75.8,–,> 87,15,> 65.5,0.937,> 75.3,62.4,24.7,0.916,2.1,0.786,0.584,22.4,0.401,0.473,0.211,–,0.527
O[C@H](CN1CC1)[C@@H](O)CN1CC1,48,> 100,–,89.9,29.2,45.6,21.4,26.8,66.6,> 100,3.25,11.2,3.24,7.13,11.6,13.1,5.78,2.94,–,6.74
N=C1C(c2nc(-c3ccc(Br)cc3)cs2)=C(O)CN1CC1CCCO1 (configuration not stated),> 100,> 100,> 100,> 100,> 100,> 100,> 100,–,> 100,> 100,–,> 100,> 100,> 100,> 100,> 100,> 100,7.13,> 100,> 100
C[C@@H](c1ccccc1)N(CC#N)C1CCC[C@H]1O (some centres not stated),–,> 100,> 100,> 100,> 100,> 100,> 100,–,–,> 100,–,–,–,–,–,–,–,–,–,–
C/C=C/C(=O)[O-].N.N.N.N.N.[Co+3].[O-][Cl+3]([O-])([O-])[O-],> 100,> 100,> 100,> 100,> 100,> 100,> 100,–,–,> 100,–,> 100,> 100,–,> 100,> 100,> 100,84.7,> 100,> 100
Cc1ccc(C)c2c1CCc1cc3ccccc3nc1-2,> 100,> 100,> 100,> 100,> 100,> 100,> 100,–,–,> 100,–,–,–,–,–,–,–,–,–,–
